Experimental data as given in US11149062B2, “HDAC inhibitors and methods of treatment using the same” (UWM Research Foundation, Inc., priority 2015, dated 2021).
Entries after “also recorded” stand apart in the source; their conditions may differ. Like-named read-outs stand apart in the source and are kept apart here.

Experiments:
[1] = molecular target: T1, Recombinant human HDAC1 (Homo sapiens, UniProt Q13547); experiment: HDAC-Glo I/II assay, HDAC1; assay type: biochemical; settings: for Class I selectivity Ratio HDAC 1/HDAC8: ratio of IC50 values
T1 construct: purchased BPS Bioscience Inc
T1 sequence (Q13547 whole entry): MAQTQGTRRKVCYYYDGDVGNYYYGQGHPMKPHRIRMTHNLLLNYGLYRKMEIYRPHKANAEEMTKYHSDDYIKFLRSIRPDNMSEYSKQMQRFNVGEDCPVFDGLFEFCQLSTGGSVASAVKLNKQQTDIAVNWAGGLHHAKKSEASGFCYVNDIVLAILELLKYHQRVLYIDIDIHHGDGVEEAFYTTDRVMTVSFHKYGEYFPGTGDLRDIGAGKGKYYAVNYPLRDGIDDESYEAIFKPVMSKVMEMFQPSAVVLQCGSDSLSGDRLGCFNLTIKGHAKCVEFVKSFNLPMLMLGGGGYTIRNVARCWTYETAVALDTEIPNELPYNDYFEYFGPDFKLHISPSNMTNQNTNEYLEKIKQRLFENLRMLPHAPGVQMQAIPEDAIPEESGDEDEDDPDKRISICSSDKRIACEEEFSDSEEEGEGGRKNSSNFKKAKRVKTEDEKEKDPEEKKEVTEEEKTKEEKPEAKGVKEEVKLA
Protocol: (§1) The purified compounds of all fragments and natural product derivatives were evaluated for inhibitory effects on three different classes of HDAC proteins (class I, IIa, and IIb). […] All activity was determined by using a fluorescence-based in vitro assay. Class I HDAC proteins that were evaluated were HDAC1, HDAC2, HDAC3, HDAC8, HDAC4, and HDAC6. Class IIa HDAC protein were HDAC4 and the Class IIb HDAC protein were HDAC6.
(§2) HDAC-Glo™ I/II Assay and Screening System (Promega) was used to determine the HDAC inhibitory activity. Recombinant human HDAC1, HDAC2, HDAC3, HDAC4, HDAC6 and HDAC8 were purchased from BPS Bioscience Inc. The inhibitory activities of the test compounds against recombinant HDAC were performed according to reagent suppliers' protocols.
(§3) All test compounds were firstly dissolved in DMSO to make 10 mM stock solution. A certain amount of stock solution was diluted to 1 mM by DMSO and then reduced by tris(2-carboxyethyl)phosphine hydrochloride (TCEP) in a molar ration of 1:1.5 for 20 min at ambient temperature prior to being assayed. After reduction, a series of fivefold dilutions of each reduced compound were prepared with HDAC-Glo buffer and 25 μL of each dilution was added into a well on a 96-well plate. HDAC enzymes were diluted to the desired concentrations with HDAC-Glo buffer and 25 μL of each diluted enzyme was dispensed into a well to mix with 25 μL of testing compound at room temperature for 30-60 seconds. After the reaction mixture had been incubated at room temperature for 1 hour, 50 μL of HDAC-Glo reagent was added to each reaction well and mixed up for 30-60 seconds. Finally, the plate was incubated at room temperature for an additional 30 minutes before the luminescence was measured on a Synergy HT plate reader (Bio-Tek). The luminescence intensity data were analyzed using GraphPad Prism 5 (GraphPad Software). In the absence of any test compound, the luminescence intensity (I100) in each data set was defined as 100% activity. In the absence of both of HDAC enzymes and test compound, the luminescence intensity (I0) in each data set was defined as 0% activity. The relative activity (%) in the presence of each compound was calculated according to the following equation: % activity=(I−I0)/(I100−I0), where I=the luminescence intensity if a compound is present in the reaction. Experiments were performed in triplicate and the calculated mean values were used for plotting.

[2] = tested on: RFX393 (renal); experiment: MTT antiproliferative assay, RFX393; assay type: cell-based; settings: 48 h, read-out: Antiproliferative Activity GI50, Renal RFX393
Protocol: (§4) Briefly, the tumor cells (1×10^4 cells/well) were seeded in 96-well microtiter plates and incubated for 24 h at 37° C. Following incubation, the media was replaced with fresh media containing the above compounds at concentrations ranging from 1 μM to 1 pM diluted in DMSO and incubated for an additional 48 h. Drugs were run in duplicate or triplicate and control cells received fresh media with DMSO concentration equivalent to the treatment groups. […] After aspirating the culture medium, 200 μL of DMSO was added to dissolve the precipitate and the resulting solution was measured for absorbance at 570 nm with a reference wavelength of 690 nm using a microplate reader (Infinite M200 Pro TECAN).

[3] = tested on: HeLa (cervical cancer); experiment: MTT antiproliferative assay, HeLa; assay type: cell-based; settings: Homo sapiens, 48 h, read-out: Antiproliferative Activity GI50, Cervical HeLa
Protocol: as §4

[4] = tested on: BALB/c mice; experiment: Maximum tolerated dose (MTD)
Text: (§5) BALB/c mice were purchased from The Jackson Laboratory (Bar Harbor, Me.) and used between 7 and 10 weeks of age. Mice were housed in a conventional animal vivarium and were given free access to food and water. All studies and procedures were approved by the Animal Care and Use Committee of the University of Wisconsin, Milwaukee.
(§6) Each animal was initially weighed using a digital scale and then intraperitoneally (IP) injected with the compounds (listed in Table 2). A single mouse was given a single IP dose of 200 mg/kg, body weight, a second mouse received a dose of 100 mg/kg and a third mouse received a single dose of 50 mg/kg. The mice were observed and weighed every other day for a period of 2 weeks. They were euthanized if they lost more than 20% of their body weight or if there were other signs of significant toxicity. […] This process was repeated until a tolerated dose was found, and the MTD value was determined.
(§7) To determine the MTD in vivo, the compounds listed above were injected intraperitoneally into BALB/c mice and morbidity and mortality were monitored over two weeks.

[5] = Maximum tolerated dose (MTD); settings: BALB/c, mouse, in vivo, ip
Text: as §5, §6, §7

[6] = tested on: HCT-116 (colon cancer); experiment: MTT antiproliferative assay, HCT-116; assay type: cell-based; settings: Homo sapiens, read-out: Antiproliferative Activity GI50, Colon HCT-116
Protocol: as §4

[7] = molecular target: T2, Recombinant human HDAC4 (Homo sapiens, UniProt P56524); experiment: HDAC-Glo I/II assay, HDAC4; assay type: biochemical
T2 construct: purchased BPS Bioscience Inc
T2 sequence (P56524 whole entry): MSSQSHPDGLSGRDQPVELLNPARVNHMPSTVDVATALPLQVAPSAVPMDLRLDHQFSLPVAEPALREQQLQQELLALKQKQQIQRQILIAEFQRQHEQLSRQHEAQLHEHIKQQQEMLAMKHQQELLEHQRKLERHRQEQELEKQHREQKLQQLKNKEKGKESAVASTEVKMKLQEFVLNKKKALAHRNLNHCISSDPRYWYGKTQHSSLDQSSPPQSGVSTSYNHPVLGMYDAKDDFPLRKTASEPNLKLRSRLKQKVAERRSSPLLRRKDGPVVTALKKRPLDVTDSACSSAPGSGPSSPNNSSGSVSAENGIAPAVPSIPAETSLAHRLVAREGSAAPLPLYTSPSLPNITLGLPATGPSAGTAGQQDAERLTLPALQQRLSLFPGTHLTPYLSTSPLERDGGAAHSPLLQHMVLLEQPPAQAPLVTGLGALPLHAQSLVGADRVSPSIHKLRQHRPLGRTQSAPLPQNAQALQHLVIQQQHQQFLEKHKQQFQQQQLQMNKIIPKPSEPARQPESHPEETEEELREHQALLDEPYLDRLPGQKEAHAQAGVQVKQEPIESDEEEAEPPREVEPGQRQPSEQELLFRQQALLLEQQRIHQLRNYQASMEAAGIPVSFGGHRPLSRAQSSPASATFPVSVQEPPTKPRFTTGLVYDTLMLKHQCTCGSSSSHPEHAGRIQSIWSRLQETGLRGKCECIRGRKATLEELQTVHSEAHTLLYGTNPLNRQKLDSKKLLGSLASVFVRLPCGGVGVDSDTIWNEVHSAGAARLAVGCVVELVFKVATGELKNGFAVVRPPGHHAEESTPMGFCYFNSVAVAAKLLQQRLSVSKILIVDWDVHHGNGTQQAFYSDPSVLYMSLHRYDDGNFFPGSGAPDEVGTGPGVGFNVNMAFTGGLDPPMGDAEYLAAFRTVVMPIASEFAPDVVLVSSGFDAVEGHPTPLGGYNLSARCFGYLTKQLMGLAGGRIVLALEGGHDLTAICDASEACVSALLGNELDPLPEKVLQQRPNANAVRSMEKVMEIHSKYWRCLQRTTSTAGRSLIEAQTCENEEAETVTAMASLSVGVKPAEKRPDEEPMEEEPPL
Protocol: as §1, §2, §3

[8] = tested on: SKOV-3 (ovarian); experiment: MTT antiproliferative assay, SKOV-3; assay type: cell-based; settings: Homo sapiens, read-out: Antiproliferative Activity GI50, Ovarian SKOV-3
Protocol: as §4

[9] = tested on: COLO-205 (colon cancer); experiment: MTT antiproliferative assay, COLO-205; assay type: cell-based; settings: Homo sapiens, read-out: Antiproliferative Activity GI50, Colon COLO-205
Protocol: as §4

[10] = 10 mg/mL cpd in 20% DMSO/saline
[11] = tested on: MDA-MB-231 (breast cancer); experiment: MTT antiproliferative assay, MDA-MB-231; assay type: cell-based; settings: Homo sapiens, read-out: Antiproliferative Activity GI50, Breast MDA-MB-231
Protocol: as §4

[12] = tested on: colon (HCT-116), cervical (HeLa), and renal (RFX393) tumor cell lines; experiment: MTT antiproliferative assay, all three tumor cell lines; assay type: cell-based; settings: read-out: GI50 values against all three tumor cell lines
Protocol: as §4

[13] = tested on: DU-145 (prostate cancer); experiment: MTT antiproliferative assay, DU-145; assay type: cell-based; settings: Homo sapiens, read-out: Antiproliferative Activity GI50, Prostate DU-145
Protocol: as §4

[14] = molecular target: T3, Recombinant human HDAC2 (Homo sapiens, UniProt Q92769); experiment: HDAC-Glo I/II assay, HDAC2; assay type: biochemical; settings: Class I HDAC; compounds reduced by TCEP prior to assay
T3 construct: purchased BPS Bioscience Inc
T3 sequence (Q92769 whole entry): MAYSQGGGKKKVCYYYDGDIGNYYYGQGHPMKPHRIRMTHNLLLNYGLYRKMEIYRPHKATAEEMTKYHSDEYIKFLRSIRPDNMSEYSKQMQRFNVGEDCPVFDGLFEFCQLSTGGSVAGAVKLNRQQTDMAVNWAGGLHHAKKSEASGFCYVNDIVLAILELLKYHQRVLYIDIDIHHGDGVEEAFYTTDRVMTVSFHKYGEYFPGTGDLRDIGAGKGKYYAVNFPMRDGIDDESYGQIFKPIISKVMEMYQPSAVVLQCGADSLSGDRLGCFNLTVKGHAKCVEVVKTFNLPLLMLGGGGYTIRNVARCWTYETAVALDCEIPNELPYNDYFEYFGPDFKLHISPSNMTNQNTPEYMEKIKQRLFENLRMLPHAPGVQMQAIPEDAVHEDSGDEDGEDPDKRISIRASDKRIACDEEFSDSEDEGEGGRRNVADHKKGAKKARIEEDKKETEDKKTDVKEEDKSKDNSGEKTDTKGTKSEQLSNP
Protocol: as §1, §2, §3

[15] = molecular target: T4, Recombinant human HDAC3 (Homo sapiens, UniProt O15379); experiment: HDAC-Glo I/II assay, HDAC3; assay type: biochemical; settings: Class I HDAC; compounds reduced by TCEP prior to assay
T4 construct: purchased BPS Bioscience Inc
T4 sequence (O15379 whole entry): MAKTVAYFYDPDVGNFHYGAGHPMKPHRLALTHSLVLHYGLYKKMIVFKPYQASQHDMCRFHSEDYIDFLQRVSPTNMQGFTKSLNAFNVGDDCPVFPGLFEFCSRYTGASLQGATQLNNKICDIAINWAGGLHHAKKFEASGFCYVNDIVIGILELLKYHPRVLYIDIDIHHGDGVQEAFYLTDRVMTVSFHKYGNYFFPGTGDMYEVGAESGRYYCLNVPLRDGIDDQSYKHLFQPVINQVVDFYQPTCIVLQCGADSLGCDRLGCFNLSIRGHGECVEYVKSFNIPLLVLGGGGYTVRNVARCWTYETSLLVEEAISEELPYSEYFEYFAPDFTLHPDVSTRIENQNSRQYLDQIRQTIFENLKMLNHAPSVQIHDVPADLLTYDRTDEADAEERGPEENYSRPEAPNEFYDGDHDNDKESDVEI
T4 sequence (Q9Y618 395-489 partner limits assumed): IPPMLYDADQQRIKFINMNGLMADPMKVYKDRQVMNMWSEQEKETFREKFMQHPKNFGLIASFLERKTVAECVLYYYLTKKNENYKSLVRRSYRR
Protocol: as §1, §2, §3

[16] = tested on: class I HDACs; experiment: HDAC-Glo I/II assay, class I HDACs; assay type: biochemical, human; settings: methyl esters compared with TDF4, TDF5, TDF6
Protocol: The purified compounds of all fragments and natural product derivatives were evaluated for inhibitory effects on three different classes of HDAC proteins (class I, IIa, and IIb). The natural products FK228, SAHA, TDP-A, and TDP-B were used as a positive control. All activity was determined by using a fluorescence-based in vitro assay. Class I HDAC proteins that were evaluated were HDAC1, HDAC2, HDAC3, HDAC8, HDAC4, and HDAC6. Class IIa HDAC protein were HDAC4 and the Class IIb HDAC protein were HDAC6.
as §2
as §3, with “After reduction, a series of fivefold dilutions of each reduced compound were prepared with HDAC-Glo buffer and 25 μL of each dilution was added into a well on a 96-well plate. HDAC enzymes were diluted to the desired concentrations with HDAC-Glo buffer and 25 μL of each diluted enzyme was dispensed into a well to mix with 25 μL of testing compound at room temperature for 30-60 seconds. After the reaction mixture had been incubated at room temperature for 1 hour, 50 μL of HDAC-Glo reagent was added to each reaction well and mixed up for 30-60 seconds.” left out

[17] = molecular target: T5, Recombinant human HDAC8 (Homo sapiens, UniProt Q9BY41); experiment: HDAC-Glo I/II assay, HDAC8; assay type: biochemical; settings: Class I HDAC; compounds reduced by TCEP prior to assay
T5 construct: purchased BPS Bioscience Inc
T5 sequence (Q9BY41 1-377): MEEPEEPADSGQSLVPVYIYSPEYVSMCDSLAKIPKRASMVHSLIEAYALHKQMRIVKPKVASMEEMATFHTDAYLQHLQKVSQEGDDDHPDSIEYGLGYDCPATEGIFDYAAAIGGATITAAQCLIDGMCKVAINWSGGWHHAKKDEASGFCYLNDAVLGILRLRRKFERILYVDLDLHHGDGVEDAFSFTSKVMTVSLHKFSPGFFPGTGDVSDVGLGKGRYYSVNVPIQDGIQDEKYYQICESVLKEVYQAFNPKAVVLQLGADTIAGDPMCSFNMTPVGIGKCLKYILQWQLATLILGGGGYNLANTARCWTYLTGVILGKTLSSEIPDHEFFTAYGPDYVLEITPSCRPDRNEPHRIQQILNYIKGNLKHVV
Protocol: as §1, §2, §3

[18] = tested on: histones H3 and H4; settings: 30 min time point; cited from earlier work
[19] = tested on: adult mice; settings: cited from earlier work
[20] = MTD (toxicity in healthy BALB/c mice), single IP dose, observed 2 weeks
[21] = Class I HDAC, compounds reduced by TCEP prior to assay, read-out: IC50 of HDAC1
[22] = Class IIa HDAC, compounds reduced by TCEP prior to assay, read-out: IC50 of HDAC4

C/C=C1\NC(=O)[C@H]2CSSCC/C=C/[C@H](CC(=O)N[C@H](C(C)C)C(=O)N2)OC(=O)[C@H](C(C)C)NC1=O [FK228, romidepsin, reference compound]
IC50 [1]: 0.0038 µM
GI50 [2]: 0.0012 µM
GI50 [3]: 0.0013 µM
MTD (toxicity in healthy BALB/c mice) ([4]; single IP dose, observed 2 weeks): 3.125 mg/kg
MTD at 2 weeks [5, 20]: 3.25 mg/kg
GI50 ([6]; HCT-116, 48 h): 0.0012 µM
IC50 [7]: 2.37 µM

O=C(CCCCCCC(=O)Nc1ccccc1)NO [SAHA, suberoyl anilide hydroxamic acid, reference compound]
GI50 ([8]; SK-OV-3, 48 h): 1.5 µM
GI50 [2]: 2.5 µM
GI50 [3]: 2.8 µM
GI50 ([9]; COLO 205, 48 h): 0.5 µM
Solubility [10]: Not soluble
GI50 ([11]; MDA-MB-231, 48 h): 1.5 µM
GI50 [12]: 2.5 to 3 µM
GI50 ([13]; DU-145, 48 h): 2 µM
MTD at 2 weeks [5, 20]: > 200 mg/kg
GI50 ([6]; HCT-116, 48 h): 2.7 µM

CCC(C)C(NC(=O)CC(O)/C=C/CCS)C(=O)OC (stereo not drawn) [TDF4m]
IC50 [14]: 2.12 µM
IC50 [15]: 0.0971 µM
IC50 [1, 21]: 0.0303 µM
Class I selectivity Ratio HDAC 1/HDAC8 [1]: 0.00061
GI50 ([2]; MTT): 32.1 µM
GI50 ([3]; MTT): 20.1 µM
Solubility [10]: Soluble
fold less active toward all class I HDACs [16]: about 10 fold
IC50 [17]: 117 µM
MTD at 2 weeks [5]: > 200 mg/kg
GI50 ([6]; HCT-116, MTT, 48 h): 31 µM
IC50 [7, 22]: > 1000 µM

CCCC[C@H](NC(=O)CC(O)/C=C/CCS)C(=O)O (stereo partly drawn) [TDF5]
IC50 [14]: 0.0459 µM
IC50 [15]: 0.839 µM
GI50 ([8]; SK-OV-3, MTT, 48 h): 0.7 µM
IC50 [1, 21]: 0.0026 µM
Class I selectivity Ratio HDAC 1/HDAC8 [1]: 0.00002
GI50 ([2]; MTT): 0.5 µM
GI50 ([3]; MTT): 0.4 µM
GI50 ([9]; COLO 205, MTT, 48 h): 0.9 µM
Solubility [10]: Mostly soluble
GI50 ([11]; MDA-MB-231, MTT, 48 h): 0.5 µM
GI50 ([12]; HCT-116, HeLa, RFX393, summary of Table 3): 0.5 µM
GI50 ([13]; DU-145, MTT, 48 h): 0.6 µM
IC50 [17]: 49.4 µM
MTD (toxicity in healthy BALB/c mice) ([4]; BALB/c, mouse, in vivo, ip, 2 weeks): >200 mg/kg
MTD at 2 weeks [5]: > 200 mg/kg
GI50 ([6]; HCT-116, MTT, 48 h): 0.4 µM
IC50 [7, 22]: > 1000 µM

CCCC[C@H](NC(=O)CC(O)/C=C/CCS)C(=O)OC (stereo partly drawn) [TDF5m]
IC50 [14]: 1.66 µM
IC50 [15]: 0.124 µM
IC50 [1, 21]: 0.0265 µM
Class I selectivity Ratio HDAC 1/HDAC8 [1]: 0.00159
GI50 ([2]; MTT): 40.1 µM
GI50 ([3]; MTT): 30.2 µM
Solubility [10]: Soluble
fold less active toward all class I HDACs [16]: about 10 fold
IC50 [17]: 133 µM
MTD at 2 weeks [5]: > 200 mg/kg
GI50 ([6]; HCT-116, MTT, 48 h): 32.6 µM
IC50 [7, 22]: > 1000 µM

COC(=O)[C@@H](NC(=O)CC(O)/C=C/CCS)C(C)C (stereo partly drawn) [TDF6m]
IC50 [14]: 1.93 µM
IC50 [15]: 0.1 µM
IC50 [1, 21]: 0.0302 µM
GI50 ([2]; MTT): 31.7 µM
GI50 ([3]; MTT): 25.6 µM
Solubility [10]: Soluble
fold less active toward all class I HDACs [16]: about 10 fold
IC50 [17]: 100 µM
MTD at 2 weeks [5]: > 200 mg/kg
GI50 ([6]; HCT-116, MTT, 48 h): 28.4 µM
IC50 [7, 22]: > 1000 µM

CC(/C=C/C(=O)NO)=C\[C@@H](C)C(=O)c1ccc(N(C)C)cc1 [TSA, trichostatin-A]
acetylation of histones H3 and H4 in dorsal hippocampus [18]: increases the acetylation of histones H3 and H4
object recognition memory 48 h after training ([19]; single treatment immediately after training, 16.5 mM, chance 15 s): completely intact object recognition memory; also recorded: spent more time than chance
object recognition memory, treatment delayed 3 h after training ([19]; treatment delayed for 3 h after training): did not enhance memory
